According to the supplement of paper PMC10307832:

How the values were obtained:
Assay in all cases: relative viability (nuclei count vs DMSO), 5 days (fraction); higher = more cells survive
AT9283 + Decitabine = compound: O=C(Nc1c[nH]nc1-c1nc2ccc(CN3CCOCC3)cc2[nH]1)NC1CC1 [AT9283] + Nc1ncn([C@H]2C[C@H](O)[C@@H](CO)O2)c(=O)n1 [Decitabine] (partner 2 µM)
Procedure, shortened: (§1)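 A single step with final 0.05% Triton X-100, 1% formaldehyde and 1 ug/ml Hoechst fixed the cells and stained nuclei 5 days after treatment. Lung cancer cell lines in 1536-well plates had been treated by pin tool the day after seeding with one drug alone or a fixed anchor-drug dose plus five library-drug doses (not always all listed) in √10 steps, and nuclei were counted on 4× images. Relative viability is the ratio of nuclei in treated wells to nuclei in vehicle wells, taken as the median of duplicate plates.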

Erlotinib + Pemetrexed = compound: C#Cc1cccc(Nc2ncnc3cc(OCCOC)c(OCCOC)cc23)c1 [Erlotinib] + Nc1nc2[nH]cc(CCc3ccc(C(=O)N[C@@H](CCC(=O)O)C(=O)O)cc3)c2c(=O)[nH]1 [Pemetrexed] (partner 0.2 µM)
Procedure, shortened: as §1

Erlotinib + Tozasertib = compound: C#Cc1cccc(Nc2ncnc3cc(OCCOC)c(OCCOC)cc23)c1 [Erlotinib] + Cc1cc(Nc2cc(N3CCN(C)CC3)nc(Sc3ccc(NC(=O)C4CC4)cc3)n2)n[nH]1 [Tozasertib] (partner 0.1 µM)
Procedure, shortened: as §1

AT9283 + Foretinib = compound: O=C(Nc1c[nH]nc1-c1nc2ccc(CN3CCOCC3)cc2[nH]1)NC1CC1 [AT9283] + COc1cc2c(Oc3ccc(NC(=O)C4(C(=O)Nc5ccc(F)cc5)CC4)cc3F)ccnc2cc1OCCCN1CCOCC1 [Foretinib] (partner 0.25 µM)
Procedure, shortened: as §1

Erlotinib + Decitabine = compound: C#Cc1cccc(Nc2ncnc3cc(OCCOC)c(OCCOC)cc23)c1 [Erlotinib] + Nc1ncn([C@H]2C[C@H](O)[C@@H](CO)O2)c(=O)n1 [Decitabine] (partner 2 µM)
Procedure, shortened: as §1

## NCI-H441
AT9283 + Decitabine; first compound 0.003 µM
  relative viability: 0.245
AT9283 + Decitabine; first compound 0.03 µM
  relative viability: 0.281
AT9283 + Decitabine; first compound 0.09487 µM
  relative viability: 0.202
AT9283 + Decitabine; first compound 0.3 µM
  relative viability: 0.217
Erlotinib + Pemetrexed; first compound 0.02 µM
  relative viability: 0.284
Erlotinib + Pemetrexed; first compound 0.2 µM
  relative viability: 0.275
Erlotinib + Pemetrexed; first compound 0.6325 µM
  relative viability: 0.259
Erlotinib + Pemetrexed; first compound 2 µM
  relative viability: 0.275
Erlotinib + Tozasertib; first compound 0.02 µM
  relative viability: 0.631
Erlotinib + Tozasertib; first compound 0.2 µM
  relative viability: 0.717
Erlotinib + Tozasertib; first compound 0.6325 µM
  relative viability: 0.574
Erlotinib + Tozasertib; first compound 2 µM
  relative viability: 0.473
AT9283 + Foretinib; first compound 0.003 µM
  relative viability: 1.02
AT9283 + Foretinib; first compound 0.03 µM
  relative viability: 0.847
AT9283 + Foretinib; first compound 0.09487 µM
  relative viability: 0.396
AT9283 + Foretinib; first compound 0.3 µM
  relative viability: 0.301
Erlotinib + Decitabine; first compound 0.02 µM
  relative viability: 0.232
Erlotinib + Decitabine; first compound 0.2 µM
  relative viability: 0.26
Erlotinib + Decitabine; first compound 0.6325 µM
  relative viability: 0.215
Erlotinib + Decitabine; first compound 2 µM
  relative viability: 0.257
